Experimental data: patent US9682995B2, “Amino-substituted isothiazoles” (BAYER PHARMA AKTIENGESELLSCHAFT, priority 2013, dated 2017)

What was measured:
Experiment in all cases: Kinase Profiling (KINOMEscan)
Format in all cases: binding
[1] = molecular target: 456 kinases (of these 395 non-mutant kinases) (Homo sapiens, UniProt P48729); settings: CSNK1A1; 10 μM
[2] = molecular target: 456 kinases (of these 395 non-mutant kinases) (Homo sapiens, UniProt Q07002); settings: PCTK3; 10 μM
[3] = molecular target: 456 kinases (of these 395 non-mutant kinases) (Homo sapiens, UniProt Q9Y2H1); settings: NDR2; 10 μM
[4] = molecular target: 456 kinases (of these 395 non-mutant kinases) (Homo sapiens, UniProt P42680); settings: TEC; 10 μM
[5] = molecular target: 456 kinases (of these 395 non-mutant kinases) (Homo sapiens, UniProt Q9UHD2); settings: TBK1; 10 μM
[6] = molecular target: 456 kinases (of these 395 non-mutant kinases) (Homo sapiens, UniProt Q96D53); settings: ADCK4; 10 μM
[7] = molecular target: 456 kinases (of these 395 non-mutant kinases) (Homo sapiens, UniProt Q15375); settings: EPHA7; 10 μM
[8] = molecular target: 456 kinases (of these 395 non-mutant kinases) (Homo sapiens, UniProt Q6ZWH5); settings: NEK10; 10 μM
[9] = molecular target: 456 kinases (of these 395 non-mutant kinases) (Homo sapiens, UniProt Q32MK0); settings: MLCK; 10 μM
[10] = molecular target: 456 kinases (of these 395 non-mutant kinases) (Homo sapiens, UniProt O60331); settings: PIP5K1C; 10 μM
[11] = molecular target: 456 kinases (of these 395 non-mutant kinases) (Homo sapiens, UniProt P42338); settings: PIK3CB; 10 μM
[12] = molecular target: 456 kinases (of these 395 non-mutant kinases) (Homo sapiens, UniProt Q9NSY1); settings: BIKE; 10 μM
[13] = molecular target: 456 kinases (of these 395 non-mutant kinases) (Homo sapiens, UniProt O14920); settings: IKK-beta; 10 μM
[14] = molecular target: 456 kinases (of these 395 non-mutant kinases) (Homo sapiens, UniProt Q16539); settings: p38-alpha; 10 μM
[15] = molecular target: 456 kinases (of these 395 non-mutant kinases) (Homo sapiens, UniProt P36897); settings: TGFBR1; 10 μM
[16] = molecular target: 456 kinases (of these 395 non-mutant kinases) (Homo sapiens, UniProt P50613); settings: CDK7; 10 μM
[17] = molecular target: 456 kinases (of these 395 non-mutant kinases) (Homo sapiens, UniProt P27361); settings: ERK1; 10 μM
[18] = molecular target: 456 kinases (of these 395 non-mutant kinases) (Homo sapiens, UniProt Q8IY84); settings: NIM1; 10 μM
[19] = molecular target: 456 kinases (of these 395 non-mutant kinases) (Homo sapiens, UniProt P16591); settings: FER; 10 μM
[20] = molecular target: 456 kinases (of these 395 non-mutant kinases) (Homo sapiens, UniProt Q09013); settings: DMPK; 10 μM
[21] = molecular target: 456 kinases (of these 395 non-mutant kinases) (Homo sapiens, UniProt O75716); settings: STK16; 10 μM
[22] = molecular target: 456 kinases (of these 395 non-mutant kinases) (Homo sapiens, UniProt Q12852); settings: DLK; 10 μM
[23] = molecular target: 456 kinases (of these 395 non-mutant kinases) (Homo sapiens, UniProt P29597); settings: 10 μM
[24] = molecular target: 456 kinases (of these 395 non-mutant kinases) (Homo sapiens, UniProt P00519, T315I); settings: 10 μM
[25] = molecular target: 456 kinases (of these 395 non-mutant kinases) (Homo sapiens, UniProt Q9C098); settings: DCAMKL3; 10 μM
[26] = molecular target: 456 kinases (of these 395 non-mutant kinases) (Homo sapiens, UniProt P29320); settings: EPHA3; 10 μM
[27] = molecular target: 456 kinases (of these 395 non-mutant kinases) (Homo sapiens, UniProt Q9UQB9); settings: AURKC; 10 μM
[28] = molecular target: 456 kinases (of these 395 non-mutant kinases) (Homo sapiens, UniProt Q15208); settings: NDR1; 10 μM
[29] = molecular target: 456 kinases (of these 395 non-mutant kinases) (Homo sapiens, UniProt P00519, M351T); settings: ABL1(M351T)-phosphorylated; 10 μM
[30] = molecular target: 456 kinases (of these 395 non-mutant kinases) (Homo sapiens, UniProt Q6PHR2); settings: ULK3; 10 μM
[31] = molecular target: 456 kinases (of these 395 non-mutant kinases) (Homo sapiens, UniProt Q15303); settings: ERBB4; 10 μM
[32] = molecular target: 456 kinases (of these 395 non-mutant kinases) (Homo sapiens, UniProt P42336, C420R); settings: PIK3CA(C420R); 10 μM

456 kinases (of these 395 non-mutant kinases) (Homo sapiens, UniProt Q15375), sequence (Q15375 28-998 limits assumed, change not shown): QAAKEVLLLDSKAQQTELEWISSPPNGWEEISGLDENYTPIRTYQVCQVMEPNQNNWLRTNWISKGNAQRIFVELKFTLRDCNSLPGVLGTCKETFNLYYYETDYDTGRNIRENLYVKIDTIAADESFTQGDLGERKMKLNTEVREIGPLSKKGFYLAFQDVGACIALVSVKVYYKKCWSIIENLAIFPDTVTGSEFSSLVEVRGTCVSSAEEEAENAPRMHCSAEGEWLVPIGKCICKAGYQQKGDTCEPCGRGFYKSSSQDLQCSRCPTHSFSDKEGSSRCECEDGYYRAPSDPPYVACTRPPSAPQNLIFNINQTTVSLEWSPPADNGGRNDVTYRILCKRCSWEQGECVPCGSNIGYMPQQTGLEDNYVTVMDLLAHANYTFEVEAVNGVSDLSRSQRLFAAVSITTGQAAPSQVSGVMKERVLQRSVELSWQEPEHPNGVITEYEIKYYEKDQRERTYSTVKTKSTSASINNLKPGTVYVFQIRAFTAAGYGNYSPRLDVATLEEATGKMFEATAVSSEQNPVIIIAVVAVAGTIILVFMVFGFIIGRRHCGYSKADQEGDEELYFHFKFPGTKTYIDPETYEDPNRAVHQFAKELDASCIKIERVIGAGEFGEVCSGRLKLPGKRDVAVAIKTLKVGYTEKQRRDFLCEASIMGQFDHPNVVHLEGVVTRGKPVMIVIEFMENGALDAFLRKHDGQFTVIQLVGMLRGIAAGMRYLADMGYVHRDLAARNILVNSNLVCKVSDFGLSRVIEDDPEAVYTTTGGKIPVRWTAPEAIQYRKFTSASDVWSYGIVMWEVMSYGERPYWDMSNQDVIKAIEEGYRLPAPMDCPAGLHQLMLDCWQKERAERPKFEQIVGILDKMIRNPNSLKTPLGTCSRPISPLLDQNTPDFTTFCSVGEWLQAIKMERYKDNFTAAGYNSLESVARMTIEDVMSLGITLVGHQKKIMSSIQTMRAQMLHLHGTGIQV
456 kinases (of these 395 non-mutant kinases) (Homo sapiens, UniProt P50613), sequence (P50613 2-346 limits assumed, change not shown): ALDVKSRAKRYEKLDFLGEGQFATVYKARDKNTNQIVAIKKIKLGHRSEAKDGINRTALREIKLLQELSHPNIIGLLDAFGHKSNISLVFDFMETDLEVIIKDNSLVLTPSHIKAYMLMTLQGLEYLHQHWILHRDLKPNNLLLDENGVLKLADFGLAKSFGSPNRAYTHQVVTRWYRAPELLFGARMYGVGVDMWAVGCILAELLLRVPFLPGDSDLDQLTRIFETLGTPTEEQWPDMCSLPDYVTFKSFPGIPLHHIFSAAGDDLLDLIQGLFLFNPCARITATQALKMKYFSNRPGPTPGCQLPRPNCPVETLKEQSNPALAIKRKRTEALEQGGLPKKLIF
456 kinases (of these 395 non-mutant kinases) (Homo sapiens, UniProt O75716), sequence (O75716 2-305 limits assumed, change not shown): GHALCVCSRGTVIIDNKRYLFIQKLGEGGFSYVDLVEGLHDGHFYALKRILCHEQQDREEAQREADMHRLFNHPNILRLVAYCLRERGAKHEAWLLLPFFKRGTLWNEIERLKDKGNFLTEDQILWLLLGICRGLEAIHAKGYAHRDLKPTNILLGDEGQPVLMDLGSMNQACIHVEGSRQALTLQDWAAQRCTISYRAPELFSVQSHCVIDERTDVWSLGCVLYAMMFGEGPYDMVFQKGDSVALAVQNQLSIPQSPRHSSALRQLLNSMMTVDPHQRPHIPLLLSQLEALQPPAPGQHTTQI
456 kinases (of these 395 non-mutant kinases) (Homo sapiens, UniProt P48729), sequence (P48729 2-337 limits assumed, change not shown): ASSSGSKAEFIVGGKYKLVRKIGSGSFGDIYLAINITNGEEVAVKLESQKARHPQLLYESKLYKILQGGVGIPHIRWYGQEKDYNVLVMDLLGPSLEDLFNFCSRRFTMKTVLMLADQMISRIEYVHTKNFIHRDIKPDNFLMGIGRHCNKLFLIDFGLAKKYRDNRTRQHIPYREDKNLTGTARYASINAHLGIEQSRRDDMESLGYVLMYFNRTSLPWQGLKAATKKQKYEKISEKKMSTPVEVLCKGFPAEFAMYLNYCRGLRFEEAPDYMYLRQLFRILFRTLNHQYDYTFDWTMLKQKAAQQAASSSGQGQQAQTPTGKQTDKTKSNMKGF
456 kinases (of these 395 non-mutant kinases) (Homo sapiens, UniProt Q15208), sequence (Q15208 2-465 limits assumed, stated change not applied): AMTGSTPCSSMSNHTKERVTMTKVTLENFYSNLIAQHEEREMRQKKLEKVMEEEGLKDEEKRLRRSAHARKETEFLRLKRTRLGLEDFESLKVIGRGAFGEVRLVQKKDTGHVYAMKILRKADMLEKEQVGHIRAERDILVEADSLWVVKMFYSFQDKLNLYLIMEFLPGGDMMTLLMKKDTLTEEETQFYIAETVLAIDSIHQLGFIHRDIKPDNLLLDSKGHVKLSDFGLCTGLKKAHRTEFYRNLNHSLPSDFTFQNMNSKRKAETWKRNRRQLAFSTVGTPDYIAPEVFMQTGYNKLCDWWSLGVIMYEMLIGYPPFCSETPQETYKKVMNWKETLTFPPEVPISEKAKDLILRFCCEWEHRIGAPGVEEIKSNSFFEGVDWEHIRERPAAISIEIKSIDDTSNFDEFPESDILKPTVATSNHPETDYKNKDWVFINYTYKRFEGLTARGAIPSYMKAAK
456 kinases (of these 395 non-mutant kinases) (Homo sapiens, UniProt P27361), sequence (P27361 2-379 limits assumed, change not shown): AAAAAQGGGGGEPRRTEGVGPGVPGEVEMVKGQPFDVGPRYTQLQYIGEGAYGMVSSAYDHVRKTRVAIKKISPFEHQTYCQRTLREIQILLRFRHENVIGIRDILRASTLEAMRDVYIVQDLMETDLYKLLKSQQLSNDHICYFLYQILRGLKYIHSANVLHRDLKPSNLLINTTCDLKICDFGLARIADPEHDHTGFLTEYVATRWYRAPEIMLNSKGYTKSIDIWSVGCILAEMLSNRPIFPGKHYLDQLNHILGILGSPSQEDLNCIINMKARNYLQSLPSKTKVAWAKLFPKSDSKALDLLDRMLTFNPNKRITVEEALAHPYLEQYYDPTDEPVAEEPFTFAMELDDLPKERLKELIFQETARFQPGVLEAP
456 kinases (of these 395 non-mutant kinases) (Homo sapiens, UniProt Q16539), sequence (Q16539 2-360 limits assumed, change not shown): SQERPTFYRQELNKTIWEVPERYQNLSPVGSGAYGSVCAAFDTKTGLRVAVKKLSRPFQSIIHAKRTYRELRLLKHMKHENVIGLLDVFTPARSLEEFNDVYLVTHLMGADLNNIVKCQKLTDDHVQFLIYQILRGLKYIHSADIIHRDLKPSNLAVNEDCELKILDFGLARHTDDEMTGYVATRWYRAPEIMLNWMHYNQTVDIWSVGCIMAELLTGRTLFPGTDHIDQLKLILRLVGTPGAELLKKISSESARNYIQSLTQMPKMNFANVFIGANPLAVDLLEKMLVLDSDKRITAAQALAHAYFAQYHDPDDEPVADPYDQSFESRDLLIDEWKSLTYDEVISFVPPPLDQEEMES
456 kinases (of these 395 non-mutant kinases) (Homo sapiens, UniProt P29320), sequence (P29320 21-983 limits assumed, change not shown): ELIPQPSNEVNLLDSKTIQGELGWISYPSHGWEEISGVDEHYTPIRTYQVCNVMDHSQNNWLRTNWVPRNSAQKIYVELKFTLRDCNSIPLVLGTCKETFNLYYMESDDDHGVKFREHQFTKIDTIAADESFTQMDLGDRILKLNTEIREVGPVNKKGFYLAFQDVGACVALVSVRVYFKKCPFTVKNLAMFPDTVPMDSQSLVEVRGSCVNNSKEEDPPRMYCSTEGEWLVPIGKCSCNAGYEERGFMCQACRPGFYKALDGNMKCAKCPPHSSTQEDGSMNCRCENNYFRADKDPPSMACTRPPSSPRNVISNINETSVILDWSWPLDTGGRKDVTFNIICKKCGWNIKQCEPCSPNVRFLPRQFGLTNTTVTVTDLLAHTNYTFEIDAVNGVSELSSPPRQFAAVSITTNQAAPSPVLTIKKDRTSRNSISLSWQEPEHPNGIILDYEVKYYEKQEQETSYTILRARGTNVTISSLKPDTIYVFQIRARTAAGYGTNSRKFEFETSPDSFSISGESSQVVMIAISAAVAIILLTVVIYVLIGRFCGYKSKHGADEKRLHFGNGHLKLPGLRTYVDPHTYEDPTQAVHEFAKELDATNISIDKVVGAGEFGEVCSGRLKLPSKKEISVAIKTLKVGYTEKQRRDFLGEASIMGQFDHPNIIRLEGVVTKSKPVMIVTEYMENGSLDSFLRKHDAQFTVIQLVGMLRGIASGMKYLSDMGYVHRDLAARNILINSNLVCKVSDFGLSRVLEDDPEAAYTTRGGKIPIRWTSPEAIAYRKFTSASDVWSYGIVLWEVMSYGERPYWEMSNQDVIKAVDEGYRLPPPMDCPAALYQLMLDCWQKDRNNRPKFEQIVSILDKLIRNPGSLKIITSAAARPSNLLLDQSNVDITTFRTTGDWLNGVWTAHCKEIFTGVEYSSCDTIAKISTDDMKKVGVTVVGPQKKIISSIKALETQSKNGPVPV
456 kinases (of these 395 non-mutant kinases) (Homo sapiens, UniProt Q9Y2H1), sequence (Q9Y2H1 2-464 limits assumed, change not shown): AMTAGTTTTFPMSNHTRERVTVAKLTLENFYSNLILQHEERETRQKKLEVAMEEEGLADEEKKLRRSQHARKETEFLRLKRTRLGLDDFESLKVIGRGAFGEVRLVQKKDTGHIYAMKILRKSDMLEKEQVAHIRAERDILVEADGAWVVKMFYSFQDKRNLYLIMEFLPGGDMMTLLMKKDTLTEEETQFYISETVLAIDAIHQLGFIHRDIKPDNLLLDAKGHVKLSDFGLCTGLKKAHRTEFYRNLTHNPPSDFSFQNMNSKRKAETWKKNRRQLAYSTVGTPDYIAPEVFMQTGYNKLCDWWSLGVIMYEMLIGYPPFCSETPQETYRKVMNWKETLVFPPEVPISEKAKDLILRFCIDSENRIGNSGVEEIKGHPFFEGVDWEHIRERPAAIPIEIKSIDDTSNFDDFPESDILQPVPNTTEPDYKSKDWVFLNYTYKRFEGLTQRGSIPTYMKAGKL

CCc1ccccc1NC(=O)c1c(C)nsc1Nc1cnc2cc(F)ccc2n1 [Example 20, N-(2-Ethylphenyl)-5-[(6-fluoroquinoxalin-2-yl)amino]-3-methyl-1,2-thiazole-4-carboxamide]
% Ctrl @ 10 μM [1]: 92 % Ctrl
% Ctrl @ 10 μM [2]: 82 % Ctrl
% Ctrl @ 10 μM [3]: 75 % Ctrl
% Ctrl @ 10 μM [4]: 100 % Ctrl
% Ctrl @ 10 μM [5]: 91 % Ctrl
% Ctrl @ 10 μM [6]: 100 % Ctrl
% Ctrl @ 10 μM [7]: 100 % Ctrl
% Ctrl @ 10 μM [8]: 84 % Ctrl
% Ctrl @ 10 μM [9]: 88 % Ctrl
% Ctrl @ 10 μM [10]: 100 % Ctrl
% Ctrl @ 10 μM [11]: 83 % Ctrl
% Ctrl @ 10 μM [12]: 62 % Ctrl
% Ctrl @ 10 μM [13]: 90 % Ctrl
% Ctrl @ 10 μM [14]: 90 % Ctrl
% Ctrl @ 10 μM [15]: 100 % Ctrl
% Ctrl @ 10 μM [16]: 92 % Ctrl
% Ctrl @ 10 μM [17]: 100 % Ctrl
% Ctrl @ 10 μM [18]: 77 % Ctrl
% Ctrl @ 10 μM [19]: 100 % Ctrl
% Ctrl @ 10 μM [20]: 84 % Ctrl
% Ctrl @ 10 μM [21]: 100 % Ctrl
% Ctrl @ 10 μM [22]: 94 % Ctrl
% Ctrl @ 10 μM ([23]; TYK2(JH1domain-catalytic)): 100 % Ctrl
% Ctrl @ 10 μM ([23]; TYK2(JH2domain-pseudokinase)): 100 % Ctrl
% Ctrl @ 10 μM ([24]; ABL1(T315I)-nonphosphorylated): 100 % Ctrl
% Ctrl @ 10 μM ([24]; ABL1(T315I)-phosphorylated): 87 % Ctrl
% Ctrl @ 10 μM [25]: 100 % Ctrl
% Ctrl @ 10 μM [26]: 95 % Ctrl
% Ctrl @ 10 μM [27]: 73 % Ctrl
% Ctrl @ 10 μM [28]: 100 % Ctrl
% Ctrl @ 10 μM [29]: 90 % Ctrl
% Ctrl @ 10 μM [30]: 100 % Ctrl
% Ctrl @ 10 μM [31]: 100 % Ctrl
% Ctrl @ 10 μM [32]: 96 % Ctrl
